This is an account of results in patent publication US5002949A, “5-substituted-6-aminopyrimidine derivatives” (American Home Products Corporation, priority 1990, dated 1991).

One test concerns white thrombus formation. Nature of the test: inhibition of white thrombus formation in the rabbit arteriovenous model. It is filed as in vivo.
Test [1] relates to platelet aggregation induced by epinephrine. Nature of the test: inhibition of platelet aggregation induced by epinephrine. The note with it: Epinephrine (second phase). It is filed as cell-based. From the text:
(§1) As representative compounds, 5-bromo-6-[[(5-bromo-3-pyridinylmethyl]amino]-2-methyl-4(1H)-pyrimidinone,HBr (Compound A) and 5-cyano-2-methyl-6-[[3-pyridinyl)methyl)]amino]-4(1H)-pyrimidinone hydrochloride (Compound B) inhibited platelet aggregation as follows.

In test [2] the test system is platelet aggregation induced by adenosine diphosphate. Nature of the test: inhibition of platelet aggregation induced by adenosine diphosphate (ADP). The note with it: ADP (second phase). Type of test: cell-based.
Text: as §1

In test [3] the test system is platelet aggregation induced by U46619 (endoperoxide). In words: inhibition of platelet aggregation induced by U46619 (endoperoxide). Type of test: cell-based.
Text: as §1

For test [4], the system named is platelet aggregation induced by collagen. In words: inhibition of platelet aggregation induced by collagen. It is filed as cell-based.
Text: as §1

The test system of test [5] is platelet aggregation induced by arachidonic acid. Nature of the test: inhibition of platelet aggregation induced by arachidonic acid. Type of test: cell-based.
Text: as §1

As a reminder, the pIC50 is the IC50 on a negative log10 scale, so that one unit is a factor of ten.

pIC50: −log10 of the molar value. Structures can show the parent of a compound that is named as a salt.

In the case of `Cc1nc(NCc2cccnc2)c(C#N)c(=O)[nH]1` [Compound B, 5-cyano-2-methyl-6-[[3-pyridinyl)methyl)]amino]-4(1H)-pyrimidinone hydrochloride], the “Percent Inhibition (thrombus weight)” value in the test with white thrombus formation (0.5 mg/kg i.v.) amounted to 41.7%; in the test with white thrombus formation (1.0 mg/kg i.v.), 56.8%; with white thrombus formation (5.0 mg/kg i.v.), 76.7%. Also, the pIC50 in test [1] is 4.97; in test [2] it was 5.20; in test [3], 5.18; in test [4], 4.88; in test [5], 5.55.

For `Cc1nc(NCc2cncc(Br)c2)c(Br)c(=O)[nH]1` [Compound A], the “Percent Inhibition (thrombus weight)” value is 28.4% in the test with white thrombus formation (0.1 mg/kg i.v.) and 47.1% with white thrombus formation (0.25 mg/kg i.v.). Besides, the pIC50 in test [1] was 6.37; in test [2], 6.70; in test [3], 6.68; in test [4], 6.27; in test [5], 6.74.
